Legend:
[1] = test system: lipid peroxides production in rat brain homogenates; experiment: Inhibitory action on lipid peroxides production in rat brain homogenates (thiobarbituric acid method); type: biochemical, rat (SD); conditions: n = 4-6
Protocol: Inhibitory Action on Lipid Peroxides Production in Rat Brain Homogenates
The male SD rat brain tissue was used as 5% homogenate in phosphate-buffered solution. After incubation of the homogenate for 1 hour at 37° C., the amount of lipid peroxides produced was determined by the thiobarbituric acid method according to the description of Ohkawa et al. (Analytical Biochemistry, 95: 551, 1979)
Test compounds were used as a solution of dimethylsulfoxide. The inhibitory action on lipid peroxide production was expressed as a % inhibition as compared with the amount of production in the vehicle group. Results

[2] = test system: ischemic convulsive seizure due to bilateral common carotid artery ligation in SHR rats; experiment: Inhibitory action on induction of convulsive seizure in experimental cerebral infarction model of SHR rats; type: in vivo, spontaneously hypertensive rats; conditions: control 151 ± 5
Protocol: Inhibitory Action on Induction of Convulsive Seizure in an Experimental Cerebral Infarction Model of Spontaneously Hypertensive Rats
Cerebral ischemia was induced by simultaneous ligation of bilateral common carotid arteries in male spontaneously hypertensive (SHR) rats (about 22 weeks of age) under light pentobarbital anesthesia. Thereafter, over about 4 hours, the behaviour was observed under conscious state.
Test drugs were orally administered as a gum arabic suspension 1 hour before the ligation of bilateral common carotid arteries under an unanesthetized condition.

[3] = test system: SRS-A generation in the rat peritoneal cavity; experiment: Effects on immunologically stimulated generation of SRS-A in the rat peritoneal cavity; type: in vivo; conditions: 1 mg/kg intraperitoneal, 1 min before antigen
Protocol: Slow Reacting Substance of Anaphylaxis (SRS-A) Generation in Rat Peritoneal Cavity
Generation of SRS-A in rat peritoneal cavity was determined by the method of Orange et al. [J. Immunol., 105, 1087-1095 (1970)] Rat-anti-egg albumin antiserum wad diluted twice with saline, and 2 ml of it was intraperitoneally given to the rat. Two hours later, egg albumin 2 mg in 5 ml of Tyrode solution containing heparin ([…]) and gelatin (0.1%) was intraperitoneally administered. Fifteen minutes after the antigen challenge, the animals were killed by bleeding under ether anesthesia and the solution given into the peritoneal cavity was harvested. The solution was centrifuged at 900 g for 5 min. Two ml of the supernatent was mixed with 7 ml of cold absolute ethanol and the mixture stood for 30 min at 4° C. After centrifugation at 1,500 g for 10 min, the supernatant was evaporated. The residue was dissolved in 1 ml of saline. Amount of SRS-A was bioassayed using guinea pig ileum. Drug dissolved in a 1% dimethylsulfoxide was intraperitoneally given 1 min before the antigen challenge.

[4] = test system: PMA-stimulated release of O2^- in guinea pig peritoneal polymorphonuclear leukocytes; experiment: PMA-stimulated release of O2- in guinea pig peritoneal polymorphonuclear leukocytes (chemiluminescence); type: cell-based
Protocol: Luminol (3-aminophthaloylhydrazine), 10 nmole, and phorbol myristate acetate (PMA), 10 ng, were added to guinea pig peritoneal polymorphonuclear leukocytes (1.5×10^4 cells) suspended in Hanks' balanced salt solution-HEPES buffer (pH 7.4). A total volume of the reaction mixture was 0.1 ml. The chemiluminescence resulted from release of superoxide (O2^-) during 30 sec was measured continuously for 10 min at 37° C. using a chemiluminometer analyzer (Packard Pico-Lite). A peak value of the chemiluminescence was compared as an index of the release of O2^-, and the chemiluminecence inhibitable by superoxide dismutase (300 μg/ml) was measured as 100%. Compound No. 50 was added immediately before the addition of PMA.

CC1=C(C)C(=O)C(C(CCCCCC(=O)O)c2ccccc2)=C(C)C1=O (centres unmarked) [Compound No. 50, 7-(3,5,6-trimethyl-1,4-benzoquinon-2-yl)-7-phenylheptanoic acid]
Inhibition of lipid peroxides production ([1]; 10^-5 M): 100 ± 0%
Inhibition of lipid peroxides production ([1]; 10^-6 M): 66.6 ± 12.4%
Inhibition of lipid peroxides production ([1]; 10^-7 M): 16.7 ± 3.2%
Time to appearance of convulsive seizure ([2]; 3 mg/kg oral): 204 ± 7 min
Time to appearance of convulsive seizure ([2]; 10 mg/kg oral): 220 ± 9 min
SRS-A generation, Inhibition (%) [3]: 72%
SRS-A generation ([3]; control 26.5 ± 3.9): 7.5 ± 2.0 LTD4 ng/rat
suppression of the release of O2- (in words) ([4]; 0.001-0.1 mM): suppressed the release of O2^- in a concentration-dependent manner
inhibition at 1 µM ([4]; Cavia porcellus, Leukocyte, 0.001 mM): 12%
inhibition at 10 µM ([4]; Cavia porcellus, Leukocyte, 0.01 mM): 56%
inhibition at 100 µM ([4]; Cavia porcellus, Leukocyte, 0.1 mM): 93%

Reference: patent US5180742A, “Quinone derivatives, their production and use” (Takeda Chemical Industries, Ltd., priority 1984, dated 1993)
